The test system of one data set is MGC-803 cells. As to the kind of experiment: CCK-8 proliferation assay, MGC-803. The format is cell-based, human. The conditions noted are these: for IC50: 48 h, CCK-8, mean ± SD. The method, then: (§1) All synthesized β-lactam-azide derivatives were evaluated for their antiproliferative activity against three cancer cell lines (MGC-803, MCF-7, A549) using CCK-8 proliferation assay. The well-known anticancer drug CA-4P was used as a control[36],[37].
(§2) MGC-803 cell line was obtained from the Chinese Academy of Sciences (Shanghai, China). MCF-7 and A549 were from the National Cell Center, China. MGC-803 cells were cultured in DMEM culture medium (DMEM, Biological Industries, Kibbutz Beit Haemek, Israel). A549 and MCF-7 cells were cultured in 1640 medium (1640, Biological Industries, Kibbutz Beit Haemek, Israel). All medium were supplemented with 10% fetal bovine serum, 100 U/ml penicillin (North China Pharmaceutical group Co.), and 100 µg/ml streptomycin (North China Pharmaceutical group Co.). All cells were cultured at 37 °C in a humidified incubator containing 5% CO2.
(§3) Synthesized analogues used in the study were dissolved in 100% cell culture grade DMSO and the final concentration of DMSO as <0.1% for testing on cancer cell lines. Cytotoxicity assays were performed on the human gastric carcinoma cell line MGC-803, the human mammary carcinoma cell line MCF-7, the human lung carcinoma cell line A549. Cells (3500–5000/well) were seeded into 96-well plates in 100 µL of culture medium. The cells were treated in triplicate with a gradient concentration of testing compounds and incubated at 37 °C, 5% CO2 for 48 h. For all cell lines, CCK-8 assay was performed to measure cytotoxic effects. The absorbance was measured using a microplate reader (BioTek Instrument, Inc. Vermont, USA) with a test wavelength of 450 nm. The absorbance levels were corrected against untreated control absorbance values. All experiments were performed in triplicate and SPSS17.0 was used for data analysis to obtain IC50 values.

The test system of a further data set is MCF-7 cells. Description: CCK-8 proliferation assay, MCF-7. Format: cell-based, human. The conditions noted are these: 48 h, CCK-8, mean ± SD. The method, then:
as §1, §2, §3

In the next data set the test system is A549 cells. Description: CCK-8 proliferation assay, A549. The format is cell-based, human. The note with it: 48 h, CCK-8, mean ± SD. The protocol:
as §1, §2, §3

The subject of another data set is MGC-803 xenograft. As to the kind of experiment: MGC-803 xenograft model in nude mice. Format: in vivo, BALB/c nude mice. The note with it: 100 mg/kg, intragastric daily. The method, then: To evaluate the potential antitumor effects of 28 in vivo, a MGC-803 xenograft model were established in nude mice by subcutaneously injecting MGC-803 cells at its logarithmic phase into the right flank of mice[56]. Tumor bearing mice were then randomly assigned to five groups (control, 100 mg/kg CA-4P, 25, 50, 100 mg/kg 28) with 10 mice per group. Then, the mice were gavaged with saline (control), CA-4P and different concentrations of 28 in saline solution daily. […] At the end of the observation period, mean tumor volumes of control, CA-4P, 25, 50, and 100 mg/kg 28 groups were 1665.98 ± 568.36 mm^3, 642.61 ± 449.92 mm^3, 788.18 ± 435.92 mm^3, 1125.93 ± 668.25 mm^3 and 1273.88 ± 513.69 mm^3, respectively. […] The antitumor activity of 28 in vivo was similar to that of CA-4P.
Animals were treated according to protocols established by the ethics committee of Zhengzhou University and the in vivo experiments were carried out in accordance with the approved guidelines and approved by the ethics committee of Zhengzhou University. BALB/c nude mice (18 g, aged 4–5 weeks) were purchased from Human SJA Laboratory Animal Co. Ltd. (Hunan, China). Mice were subcutaneously implanted with MGC-803 cells (5 × 10^6 cells per mouse) on the right flank of nude mice. Once tumor volumes reached to approximately 100 mm^3, the mice were randomly divided into corresponding saline, CA-4P (100 mg/kg), 28 (100 mg/kg), 28 (50 mg/kg) and 28 (25 mg/kg) treatment groups (n = 10 mice for each group). The treatment groups received intragastric administration of 28 and CA-4P per day for a period of 21 days. Then, the mice were euthanized and tumors isolated and weighed. Their body weights were measured and tumor sizes determined by vernier caliper measurement every other day.

The values that follow come from PMC5630639 (Scientific Reports, 2017).

`COc1ccc(N2C(=O)[C@H](c3ccccc3)[C@H]2c2ccc(N=[N+]=[N-])cc2)cc1OC` (relative stereo) [Compound 12, trans-4-(4-azidophenyl)-1-(3,4-dimethoxyphenyl)-3-phenylazetidin-2-one]: the concentration for half-maximal inhibition (IC50) in the data set on MGC-803 cells (Homo sapiens, MGC-803) was greater than 20 µM; in the data set with MCF-7 cells (Homo sapiens, MCF7) it was greater than 20 µM; in the data set on A549 cells (Homo sapiens, A549), greater than 20 µM.

Turning to `COc1ccc(N2C(=O)[C@H](c3ccc(Cl)cc3)[C@H]2c2ccc(N=[N+]=[N-])cc2)cc1` (relative stereo) [Compound 14, trans-4-(4-azidophenyl)-3-(4-chlorophenyl)-1-(4-methoxyphenyl)azetidin-2-one], the melting point was 147 to 149 °C. Moreover, the half-inhibitory concentration (IC50) in the data set on MGC-803 cells (Homo sapiens, MGC-803) was greater than 20 µM. This compound also came in with a half-maximal inhibitory concentration (IC50) with MCF-7 cells (Homo sapiens, MCF7) greater than 20 µM. In the data set with A549 cells (Homo sapiens, A549), the IC50 is greater than 20 µM.

`COc1ccc(N2C(=O)[C@@H](c3ccccc3)[C@@H]2c2ccc(N=[N+]=[N-])cc2)cc1` (relative stereo) [Compound 15, trans-4-(4-azidophenyl)-1-(4-methoxyphenyl)-3-phenylazetidin-2-one]: the melting point lay in the range of 114 to 116 °C. In the data set with MGC-803 cells (Homo sapiens, MGC-803), this compound had an IC50 greater than 20 µM. The compound also registered an IC50 in the data set with MCF-7 cells (Homo sapiens, MCF7) greater than 20 µM. In addition, in the data set with A549 cells (Homo sapiens, A549), the half-inhibitory concentration (IC50) was greater than 20 µM.

For the compound `COc1cccc([C@H]2C(=O)N(c3ccc(OC)c(OC)c3)[C@@H]2c2ccc(N=[N+]=[N-])cc2)c1` (relative stereo) [Compound 16, trans-4-(4-azidophenyl)-1-(3,4-dimethoxyphenyl)-3-(3-methoxyphenyl)azetidin-2-one], the concentration for half-maximal inhibition (IC50) is greater than 20 µM with MGC-803 cells (Homo sapiens, MGC-803); greater than 20 µM in the data set on MCF-7 cells (Homo sapiens, MCF7); greater than 20 µM with A549 cells (Homo sapiens, A549).

Consider `COc1ccc([C@H]2C(=O)N(c3cc(OC)c(OC)c(OC)c3)[C@@H]2c2ccc(N=[N+]=[N-])cc2)cc1` (relative stereo) [Compound 17, trans-4-(4-azidophenyl)-3-(4-methoxyphenyl)-1-(3,4,5-trimethoxyphenyl)azetidin-2-one], for which the IC50 with MGC-803 cells (Homo sapiens, MGC-803) is 0.59 ± 0.014 µM; in the data set on MCF-7 cells (Homo sapiens, MCF7), 1.07 ± 0.024 µM; with A549 cells (Homo sapiens, A549), 3.22 ± 0.349 µM.

With `COc1cccc([C@H]2C(=O)N(c3cc(OC)c(OC)c(OC)c3)[C@@H]2c2ccc(N=[N+]=[N-])cc2)c1` (relative stereo) [Compound 19, trans-4-(4-azidophenyl)-3-(3-methoxyphenyl)-1-(3,4,5-trimethoxyphenyl)azetidin-2-one], the half-inhibitory concentration (IC50) in the data set on MGC-803 cells (Homo sapiens, MGC-803) was found to be 1.4 ± 0.133 µM; with MCF-7 cells (Homo sapiens, MCF7), 2.88 ± 0.489 µM; in the data set with A549 cells (Homo sapiens, A549) it was 18.1 ± 2.31 µM. The “activity loss against the growth of MGC-803 cells” value in the data set with MGC-803 cells (hydrogen atom (18) replaced with methoxy group (19)) is reported as “over 8 fold”.

`COc1ccc([C@H]2C(=O)N(c3ccc(OC)cc3OC)[C@@H]2c2cccc(N=[N+]=[N-])c2)cc1` (relative stereo) [Compound 21, trans-4-(3-azidophenyl)-1-(2,4-dimethoxyphenyl)-3-(4-methoxyphenyl)azetidin-2-one]: the IC50 is greater than 20 µM in the data set on MGC-803 cells (Homo sapiens, MGC-803); greater than 20 µM with MCF-7 cells (Homo sapiens, MCF7); greater than 20 µM in the data set on A549 cells (Homo sapiens, A549).

With `COc1ccc(N2C(=O)[C@H](c3ccc(F)cc3)[C@H]2c2cccc(N=[N+]=[N-])c2)c(OC)c1` (relative stereo) [Compound 22, trans-4-(3-azidophenyl)-1-(2,4-dimethoxyphenyl)-3-(4-fluorophenyl)azetidin-2-one], the IC50 with MGC-803 cells (Homo sapiens, MGC-803) was greater than 20 µM; in the data set on MCF-7 cells (Homo sapiens, MCF7), greater than 20 µM; in the data set with A549 cells (Homo sapiens, A549) it was greater than 20 µM.

Take `COc1cccc([C@H]2C(=O)N(c3cc(OC)c(OC)c(OC)c3)[C@@H]2c2cccc(N=[N+]=[N-])c2)c1` (relative stereo) [Compound 23, trans-4-(3-azidophenyl)-3-(3-methoxyphenyl)-1-(3,4,5-trimethoxyphenyl)azetidin-2-one]: the 50% inhibitory concentration (IC50) with MGC-803 cells (Homo sapiens, MGC-803) was determined as 1.4 ± 0.127 µM; in the data set with MCF-7 cells (Homo sapiens, MCF7), 2.88 ± 0.494 µM; in the data set with A549 cells (Homo sapiens, A549) it was 18.1 ± 1.71 µM.

As to `COc1cc(N2C(=O)[C@H](c3ccc(F)cc3)[C@H]2c2cccc(N=[N+]=[N-])c2)cc(OC)c1OC` (relative stereo) [Compound 24, trans-4-(3-azidophenyl)-3-(4-fluorophenyl)-1-(3,4,5-trimethoxyphenyl)azetidin-2-one], the IC50 is 0.84 ± 0.63 µM with MGC-803 cells (Homo sapiens, MGC-803); 4 ± 0.922 µM in the data set on MCF-7 cells (Homo sapiens, MCF7); 5.76 ± 0.887 µM in the data set with A549 cells (Homo sapiens, A549).

Consider `COc1ccc([C@H]2C(=O)N(c3cc(OC)c(OC)c(OC)c3)[C@@H]2c2ccc(-n3cc(CSC(=S)N4CCCC4)nn3)cc2)cc1` (relative stereo) [Compound 31, (1-(4-(trans-3-(4-methoxyphenyl)-4-oxo-1-(3,4,5-trimethoxyphenyl)azetidin-2-yl)phenyl)-1H-1,2,3-triazol-4-yl)methylpyrrolidine-1-carbodithioate], for which the IC50 is greater than 20 µM with MGC-803 cells (Homo sapiens, MGC-803); greater than 20 µM in the data set on MCF-7 cells (Homo sapiens, MCF7); greater than 20 µM in the data set on A549 cells (Homo sapiens, A549).

Consider `CCN1CCN(C(=S)SCc2cn(-c3ccc([C@@H]4[C@@H](c5ccccc5)C(=O)N4c4cc(OC)c(OC)c(OC)c4)cc3)nn2)CC1` (relative stereo) [Compound 32, (1-(4-(trans-4-oxo-3-phenyl-1-(3,4,5-trimethoxyphenyl)azetidin-2-yl)phenyl)-1H-1,2,3-triazol-4-yl)methyl-4-ethylpiperazine-1-carbodithioate], for which the IC50 with MGC-803 cells (Homo sapiens, MGC-803) was greater than 20 µM; with MCF-7 cells (Homo sapiens, MCF7), greater than 20 µM; in the data set with A549 cells (Homo sapiens, A549) it was greater than 20 µM.

For `COc1ccc(/C=C\c2cc(OC)c(OC)c(OC)c2)cc1OP(=O)(O)O` [CA-4P, reference compound], the half-inhibitory concentration (IC50) in the data set with MGC-803 cells came to 0.015 ± 0.001 µM; in the data set with MCF-7 cells, 0.023 ± 0.002 µM; in the data set on A549 cells, 0.033 ± 0.007 µM. In addition, the “inhibitory rate (tumor weight)” value in the data set on MGC-803 xenograft (21 days) is 63.27%. Also, the average tumor weight in the data set on MGC-803 xenograft (21 days (control 1.23 ± 0.28)) is on record as 0.45 ± 0.22 g. For the same compound, the “mean tumor volume at end of observation period” value in the data set with MGC-803 xenograft (21 days (control 1665.98 ± 568.36)) came out at 642.61 ± 449.92 mm^3.

For the compound `COc1ccc([C@H]2C(=O)N(c3ccc(OC)c(OC)c3)[C@@H]2c2ccc(N=[N+]=[N-])cc2)cc1` [Compound 13, trans-4-(4-azidophenyl)-1-(3,4-dimethoxyphenyl)-3-(4-methoxyphenyl)azetidin-2-one], the half-inhibitory concentration (IC50) in the data set on MGC-803 cells (Homo sapiens, MGC-803) was greater than 20 µM; in the data set on MCF-7 cells (Homo sapiens, MCF7), greater than 20 µM; with A549 cells (Homo sapiens, A549) it was greater than 20 µM.

`COc1cc(N2C(=O)[C@@](c3ccccc3)(S(=O)(=O)C(F)(F)F)[C@H]2c2ccc(N=[N+]=[N-])cc2)cc(OC)c1OC` [Compound 35, 4-(4-azidophenyl)-3-phenyl-3-((trifluoromethyl)sulfonyl)-1-(3,4,5-trimethoxyphenyl)azetidin-2-one]: the IC50 in the data set on MGC-803 cells (Homo sapiens, MGC-803) is greater than 20 µM; in the data set with MCF-7 cells (Homo sapiens, MCF7), greater than 20 µM; with A549 cells (Homo sapiens, A549) it was greater than 20 µM.

Consider `COc1cc(N2C(=O)[C@@](c3ccccc3)(S(=O)(=O)C(F)(F)F)[C@H]2c2cccc(N=[N+]=[N-])c2)cc(OC)c1OC` [Compound 36, 4-(3-azidophenyl)-3-phenyl-3-((trifluoromethyl)sulfonyl)-1-(3,4,5-trimethoxyphenyl)azetidin-2-one], for which the half-maximal inhibitory concentration (IC50) was greater than 20 µM in the data set with MGC-803 cells (Homo sapiens, MGC-803); greater than 20 µM with MCF-7 cells (Homo sapiens, MCF7); greater than 20 µM in the data set on A549 cells (Homo sapiens, A549).

Take “trans-4-phenyl-3-(thiophen-2-yl)-1-(3,4,5-trimethoxyphenyl)azetidin-2-one [Compound 27]”: the IC50 in the data set with MGC-803 cells, with MCF-7 cells and in the data set on A549 cells was greater than 20 µM in each case.
